{"source": "patent US5352602A", "about": "“Isoamylase and process for producing the same” (Amano Pharmaceutical Co., Ltd., priority 1992, dated 1994)", "key": {"[1]": {"test_system": "isoamylase of Xanthomonas maltophilia S-517", "experiment": "Substrate specificity of the purified isoamylase", "assay_type": "biochemical", "settings": "for Substrate specificity: in words; for Initial Velocity: relative, glycogen = 100; for V: velocity of the purified isoamylase on the named substrate"}, "[2]": {"test_system": "isoamylase of Xanthomonas maltophilia S-517", "experiment": "Influence of inhibitors and metal salts on isoamylase activity", "assay_type": "biochemical", "settings": "for Inhibition by Metal Salt: Table 3, isoamylase of Xanthomonas maltophilia S-517 (Invention); for Inhibition of the enzyme of the present invention: in words", "description": "Measurements of activity of the enzyme of the present invention were made as follows in accordance with the method of Maruo-Kobayashi (see NIHON NOGEI KAISHI, Vol. 23, pp. 115-120 (1949).\nA reaction system consisting of 2.0 ml of a 1.0% soluble starch (glutinous rice) solution, 0.4 ml of a 0.5M acetate buffer solution (pH=3.5), and 0.4 ml of an enzyme liquid was allowed to react at 40° C. for 30 minutes. To the reaction system was added 0.4 ml of a 0.01N iodine solution. After dilution with water to 10 ml, the absorbance at 610 nm was measured. The enzyme activity on an absorbance increase of 0.1 within 1 hour was taken as 10 units."}, "[3]": {"test_system": "isoamylase of Pseudomonas origin", "settings": "cited from earlier work; for Inhibition by Metal Salt: Table 3, isoamylase of Pseudomonas origin; for Inhibition of the enzyme derived from Pseudomonas: in words"}}, "note": "“Also recorded” adds a separate entry of the source. Like-named read-outs stand apart in the source and are kept apart here."}
{"compound": "Amylopectin", "values": [{"measurement": "Substrate specificity", "setting": "[1]", "result": "acts"}, {"measurement": "Initial Velocity", "setting": "[1]", "result": 34.7, "unit": "%"}, {"measurement": "V", "setting": "[1]", "result": "2.18 × 10^-1 μmol/min/U"}]}
{"compound": "[Cl][Cu][Cl]", "note": "[CuCl2]", "values": [{"measurement": "Percent Inhibition", "setting": "[2]; inhibitor concentration 1 mM", "result": 20.7, "unit": "%"}]}
{"compound": "[Cl][Hg][Cl]", "note": "[HgCl2]", "values": [{"measurement": "Percent Inhibition", "setting": "[2]; inhibitor concentration 1 mM", "result": 42.2, "unit": "%"}]}
{"compound": "Glycogen", "values": [{"measurement": "Substrate specificity", "setting": "[1]", "result": "actively acts"}, {"measurement": "Initial Velocity", "setting": "[1]", "result": 100, "unit": "%"}, {"measurement": "V", "setting": "[1]", "result": "6.28 × 10^-1 μmol/min/U"}]}
{"compound": "I[I-]I.[K+]", "note": "[Potassium iodoiodide]", "values": [{"measurement": "Percent Inhibition", "setting": "[2]; inhibitor concentration 1 mM", "result": 4.5, "unit": "%"}]}
{"compound": "Pullulan", "values": [{"measurement": "Substrate specificity", "setting": "[1]", "result": "does not act; also recorded: hardly acts"}, {"measurement": "Initial Velocity", "setting": "[1]", "result": 1.3, "unit": "%"}, {"measurement": "V", "setting": "[1]", "result": "8.45 × 10^-3 μmol/min/U"}]}
{"compound": "O=[N+]([O-])c1ccc(O)c(CBr)c1", "note": "[2-Hydroxy-5-nitrobenzyl bromide]", "values": [{"measurement": "Percent Inhibition", "setting": "[2]; inhibitor concentration 0.1 mM", "result": 14.3, "unit": "%"}]}
{"compound": "O=[N+]([O-])[O-].[Ag+]", "note": "[AgNO3]", "values": [{"measurement": "Percent Inhibition", "setting": "[2]; inhibitor concentration 1 mM", "result": 98.0, "unit": "%"}]}
{"compound": "[Cl-].[Cl-].[Mg+2]", "note": "[MgCl2]", "values": [{"measurement": "Inhibition by Metal Salt", "setting": "[3]", "result": 0, "unit": "%"}, {"measurement": "Inhibition of the enzyme derived from Pseudomonas", "setting": "[3]", "result": "not inhibited"}, {"measurement": "Inhibition by Metal Salt", "setting": "[2]", "result": 26.3, "unit": "%"}, {"measurement": "Inhibition of the enzyme of the present invention", "setting": "[2]", "result": "inhibited"}, {"measurement": "Percent Inhibition", "setting": "[2]; inhibitor concentration 1 mM", "result": 26.3, "unit": "%"}]}
{"compound": "O=C(O)CN(CCN(CC(=O)O)CC(=O)O)CC(=O)O", "note": "[EDTA]", "values": [{"measurement": "Percent Inhibition", "setting": "[2]; inhibitor concentration 5 mM", "result": 0, "unit": "%"}]}
{"compound": "O=C1CCC(=O)O1", "note": "[Succinic anhydride]", "values": [{"measurement": "Percent Inhibition", "setting": "[2]; inhibitor concentration 5 mM", "result": 8.4, "unit": "%"}]}
{"compound": "[Cl-].[Na+]", "note": "[NaCl]", "values": [{"measurement": "Percent Inhibition", "setting": "[2]", "result": 0, "unit": "%"}]}
{"compound": "CC(=O)I", "note": "[Acetyl monoiodide]", "values": [{"measurement": "Percent Inhibition", "setting": "[2]; inhibitor concentration 0.1 mM", "result": 10.1, "unit": "%"}, {"measurement": "Percent Inhibition", "setting": "[2]; inhibitor concentration 5 mM", "result": 34.6, "unit": "%"}]}
{"compound": "OCCS", "note": "[β-Mercaptoethanol]", "values": [{"measurement": "Percent Inhibition", "setting": "[2]; inhibitor concentration 10 mM", "result": 31.7, "unit": "%"}]}
{"compound": "Ammonium molybdate", "values": [{"measurement": "Percent Inhibition", "setting": "[2]; inhibitor concentration 1 mM", "result": 0, "unit": "%"}]}
{"compound": "O=C1CCC(=O)N1Br", "note": "[N-Bromosuccinimide]", "values": [{"measurement": "Percent Inhibition", "setting": "[2]; inhibitor concentration 0.01 mM", "result": 100.0, "unit": "%"}]}
{"compound": "[F-].[Na+]", "note": "[NaF]", "values": [{"measurement": "Inhibition by Metal Salt", "setting": "[3]", "result": 19, "unit": "%"}, {"measurement": "Inhibition of the enzyme derived from Pseudomonas", "setting": "[3]", "result": "inhibited"}, {"measurement": "Inhibition by Metal Salt", "setting": "[2]", "result": 0, "unit": "%"}, {"measurement": "Inhibition of the enzyme of the present invention", "setting": "[2]", "result": "not inhibited"}, {"measurement": "Percent Inhibition", "setting": "[2]; inhibitor concentration 1 mM", "result": 0, "unit": "%"}]}
{"compound": "O=C(O)c1cc[c]([Hg][Cl])cc1", "note": "[PCMB]", "values": [{"measurement": "Inhibition by Metal Salt", "setting": "[3]", "result": 34, "unit": "%"}, {"measurement": "Inhibition of the enzyme derived from Pseudomonas", "setting": "[3]", "result": "inhibited"}, {"measurement": "Inhibition by Metal Salt", "setting": "[2]", "result": 0, "unit": "%"}, {"measurement": "Inhibition of the enzyme of the present invention", "setting": "[2]", "result": "not inhibited"}, {"measurement": "Percent Inhibition", "setting": "[2]; inhibitor concentration 1 mM", "result": 0, "unit": "%"}]}
{"compound": "O=C1O[C@H](CO)[C@@H](O)[C@H](O)[C@H]1O", "note": "[Glucono-1,5-lactone]", "values": [{"measurement": "Percent Inhibition", "setting": "[2]; inhibitor concentration 10 mM", "result": 8.0, "unit": "%"}]}
